Assay results as given in PubChem BioAssay AID1259407 (Chemical Carcinogenesis Research Information System (CCRIS), 2018).
Active and inactive are the calls of the source. How the calls were made is not given here.

System: CCRIS mutagenicity, Ames/micronucleus/aberration tests
Assay: CCRIS mutagenicity studies

COc1cc(OC)c2c(=O)c3cc(OC)ccc3oc2c1
mutagenic call (Test System: AMES SALMONELLA TYPHIMURIUM, Strain/Indicator: TA97, Metabolic Activation: RAT, LIVER, S-9, PHENOBARBITAL AND 5,6-BENZOFLAVONE, Method: PREINCUBATION): active; positive | mutagenic call (Test System: AMES SALMONELLA TYPHIMURIUM, Strain/Indicator: TA98, Metabolic Activation: RAT, LIVER, S-9, PHENOBARBITAL AND 5,6-BENZOFLAVONE, Method: PREINCUBATION): inactive; negative | mutagenic call (Test System: AMES SALMONELLA TYPHIMURIUM, Strain/Indicator: TA100, Metabolic Activation: RAT, LIVER, S-9, PHENOBARBITAL AND 5,6-BENZOFLAVONE, Method: PREINCUBATION): active; positive | mutagenic call (Test System: AMES SALMONELLA TYPHIMURIUM, Strain/Indicator: TA2637, Metabolic Activation: NONE, Method: PREINCUBATION): active; positive | mutagenic call (Test System: AMES SALMONELLA TYPHIMURIUM, Strain/Indicator: TA2637, Metabolic Activation: RAT, LIVER, S-9, PHENOBARBITAL AND 5,6-BENZOFLAVONE, Method: PREINCUBATION): active; positive

O=Cc1ccccc1O
mutagenic call (Test System: AMES SALMONELLA TYPHIMURIUM, Strain/Indicator: TA98, Metabolic Activation: NONE, Method: STANDARD PLATE): inactive; negative | mutagenic call (Test System: AMES SALMONELLA TYPHIMURIUM, Strain/Indicator: TA98, Metabolic Activation: S-9, Method: STANDARD PLATE): inactive; negative | mutagenic call (Test System: AMES SALMONELLA TYPHIMURIUM, Strain/Indicator: TA100, Metabolic Activation: NONE, Method: STANDARD PLATE): inactive; negative | mutagenic call (Test System: AMES SALMONELLA TYPHIMURIUM, Strain/Indicator: TA100, Metabolic Activation: S-9, Method: STANDARD PLATE): inactive; negative

C=C(C)C#N
mutagenic call (Test System: AMES SALMONELLA TYPHIMURIUM, Strain/Indicator: TA97, Metabolic Activation: HAMSTER, LIVER, S-9, AROCLOR 1254 (10%), Method: PREINCUBATION): inactive; negative | mutagenic call (Test System: AMES SALMONELLA TYPHIMURIUM, Strain/Indicator: TA97, Metabolic Activation: HAMSTER, LIVER, S-9, AROCLOR 1254 (30%), Method: PREINCUBATION): inactive; negative | mutagenic call (Test System: AMES SALMONELLA TYPHIMURIUM, Strain/Indicator: TA97, Metabolic Activation: NONE, Method: PREINCUBATION): inactive; negative | mutagenic call (Test System: AMES SALMONELLA TYPHIMURIUM, Strain/Indicator: TA97, Metabolic Activation: RAT, LIVER, S-9, AROCLOR 1254 (10 OR 30%), Method: PREINCUBATION): inactive; negative | mutagenic call (Test System: AMES SALMONELLA TYPHIMURIUM, Strain/Indicator: TA98, Metabolic Activation: HAMSTER, LIVER, S-9, AROCLOR 1254 (10%), Method: PREINCUBATION): inactive; negative | mutagenic call (Test System: AMES SALMONELLA TYPHIMURIUM, Strain/Indicator: TA98, Metabolic Activation: HAMSTER, LIVER, S-9, AROCLOR 1254 (30%), Method: PREINCUBATION): inactive; negative | mutagenic call (Test System: AMES SALMONELLA TYPHIMURIUM, Strain/Indicator: TA98, Metabolic Activation: NONE, Method: PREINCUBATION): inactive; negative | mutagenic call (Test System: AMES SALMONELLA TYPHIMURIUM, Strain/Indicator: TA98, Metabolic Activation: RAT, LIVER, S-9, AROCLOR 1254 (10%), Method: PREINCUBATION): inactive; negative | mutagenic call (Test System: AMES SALMONELLA TYPHIMURIUM, Strain/Indicator: TA100, Metabolic Activation: HAMSTER, LIVER, S-9, AROCLOR 1254 (10%), Method: PREINCUBATION): inactive; negative | mutagenic call (Test System: AMES SALMONELLA TYPHIMURIUM, Strain/Indicator: TA100, Metabolic Activation: HAMSTER, LIVER, S-9, AROCLOR 1254 (30%), Method: PREINCUBATION): inactive; negative | mutagenic call (Test System: AMES SALMONELLA TYPHIMURIUM, Strain/Indicator: TA100, Metabolic Activation: NONE, Method: PREINCUBATION): inactive; negative | mutagenic call (Test System: AMES SALMONELLA TYPHIMURIUM, Strain/Indicator: TA100, Metabolic Activation: RAT, LIVER, S-9, AROCLOR 1254 (10 OR 30%), Method: PREINCUBATION): inactive; negative | mutagenic call (Test System: AMES SALMONELLA TYPHIMURIUM, Strain/Indicator: TA1535, Metabolic Activation: HAMSTER, LIVER, S-9, AROCLOR 1254 (10%), Method: PREINCUBATION): inactive; negative | mutagenic call (Test System: AMES SALMONELLA TYPHIMURIUM, Strain/Indicator: TA1535, Metabolic Activation: HAMSTER, LIVER, S-9, AROCLOR 1254 (30%), Method: PREINCUBATION): inactive; negative | mutagenic call (Test System: AMES SALMONELLA TYPHIMURIUM, Strain/Indicator: TA1535, Metabolic Activation: NONE, Method: PREINCUBATION): inactive; negative | mutagenic call (Test System: AMES SALMONELLA TYPHIMURIUM, Strain/Indicator: TA1535, Metabolic Activation: RAT, LIVER, S-9, AROCLOR 1254 (10 OR 30%), Method: PREINCUBATION): inactive; negative | mutagenic call (Test System: AMES SALMONELLA TYPHIMURIUM, Strain/Indicator: TA1537, Metabolic Activation: HAMSTER, LIVER, S-9, AROCLOR 1254 (10%), Method: PREINCUBATION): inactive; negative | mutagenic call (Test System: AMES SALMONELLA TYPHIMURIUM, Strain/Indicator: TA1537, Metabolic Activation: HAMSTER, LIVER, S-9, AROCLOR 1254 (30%), Method: PREINCUBATION): inactive; negative | mutagenic call (Test System: AMES SALMONELLA TYPHIMURIUM, Strain/Indicator: TA1537, Metabolic Activation: NONE, Method: PREINCUBATION): inactive; negative | mutagenic call (Test System: AMES SALMONELLA TYPHIMURIUM, Strain/Indicator: TA1537, Metabolic Activation: RAT, LIVER, S-9, AROCLOR 1254 (10 OR 30%), Method: PREINCUBATION): inactive; negative | mutagenic call (Test System: UDS HUMAN HEPATOMA HEPG2 CELLS, Strain/Indicator: THY INCORP, Metabolic Activation: NONE, Method: LIQUID SCINTILLATION COUNTING): active; positive
